# Experimental data published in patent US20180214388A1, “COMPOSITION AND METHOD FOR REDUCING SCARRING” (priority 2015, published 2018).
# Assays:
# [1] = tested on: cytochrome P450 oxidase enzyme system; conditions: metabolized in the liver; cited from earlier work
# [2] = tested on: subjects with existing scars, incision after surgical removal; assay: Caffeine cream for scar reduction or prevention after surgical excision (Example 3); assay type: in vivo, human; conditions: topical cream; both subjects felt caffeine effects
# Description: Two subjects with existing scars were chosen for the study.
# Subject #1 presented with a skin growth on the left mid cheek.
# Subject #2 presented with an older mid-forehead scar. […] The subject underwent a third revision of the scar.
# [3] = cited from earlier work
# wound = assay: Wound healing with application of resveratrol; assay type: in vivo
smiles,measurement,setting,value
"Cn1c(=O)[nH]c2ncn(C)c2c1=O [Paraxanthine, 1,7-dimethyl-3H-purine-2,6-dione]",share of caffeine metabolites,[1],84%
"Cn1c(=O)c2c(ncn2C)n(C)c1=O [caffeine, 1,3,7-trimethylpurine-2,6-dione]",uptake from application site and distribution,[2],rapidly taken from the application site and distributed throughout the body
"Oc1ccc(/C=C/c2cc(O)cc(O)c2)cc1 [resveratrol, trans-3,4′,5-trihydroxystilbene]",solubility in water,[3],very low solubility
same,resulting scar,wound,attenuated scar
same,time to epithelialization,wound,≤ 24 h
"Cn1c(=O)c2[nH]cnc2n(C)c1=O [theophylline, 1,3-dimethyl-7H-purine-2,6-dione, reference compound]",share of caffeine metabolites,[1],4%
